# Measurements published in US20260345621A1, “GABAA RECEPTOR MODULATORS AND USES THEREOF” (Engrail Therapeutics, Inc., priority 2022, published 2026).
# Entries after “also recorded” stand apart in the source; their conditions may differ.
# What was measured:
# [1] = phase II trial terminated; long term dosing studies; cited from earlier work
# sleep stages = assay: Sleep-stage analysis in wirelessly implanted rats; conditions: Lorazepam 1 mg/kg IP
# EEG spectral bands = assay: Pharmaco-EEG spectral analysis in wirelessly implanted rats
# [2] = system: anxiety (elevated plus maze); assay: Elevated plus maze (EPM); conditions: oral
# [3] = Frontal-Parietal cortex, Quiet Wake
molecule,measurement,setting,value
"CCn1ncnc1COc1nn2c(-c3ccccc3F)nnc2cc1C(C)(C)C [7-(1,1-dimethylethyl)-6-(2-ethyl-2H-1,2,4-triazol-3-ylmethoxy)-3-(2-fluorophenyl)-1,2,4-triazolo[4,3-b]pyridazine]",toxicity,[1],terminated due to toxicity in long term dosing studies
"O=C1Nc2ccc(Cl)cc2C(c2ccccc2Cl)=NC1O (centres unmarked) [Lorazepam, reference compound]",NREM onset,sleep stages; Compound 1 1 mg/kg PO,decreased the latency to NREM onset; also recorded: quicker time to Non-REM onset sleep than Compound 1
same,Active Wake,sleep stages; Compound 1 PO,decreased Active Wake
same,NREM,sleep stages; Compound 1 PO,increased NREM
same,EEG spectral power change,"EEG spectral bands; Frontal-Frontal cortex, Active and Quiet Wake","increased beta, low and high gamma"
same,EEG spectral power change,"EEG spectral bands; Frontal-Frontal cortex, NREM","decreased theta, alpha, and beta, but increased low gamma"
same,duration of EEG effects,"EEG spectral bands; Frontal-Frontal cortex, NREM, Compound 1 high dose PO, Lorazepam 1 mg/kg IP",9 h
same,EEG spectral power change,"EEG spectral bands; Frontal-Frontal cortex, REM",increased beta
same,duration of increase in low and high gamma,"EEG spectral bands; Frontal-Parietal cortex, NREM",only lasting to two hours post dose
same,EEG spectral power change,EEG spectral bands; [3],"decreased theta, increased beta and low and high gamma"
same,duration of EEG effects,EEG spectral bands; [3],did not last past four hours post dose
same,EEG spectral power change,"EEG spectral bands; Frontal-Parietal cortex, REM","increased theta, alpha, beta, and low gamma"
same,EEG spectral power change,"EEG spectral bands; summary, Quiet Wake","increased low & high gamma, decreased delta"
chlordiazepoxide [reference compound],effect compared with reference anxiolytic chlordiazepoxide,[2],equivalent
